Experiments:
Type in all cases: in vivo
[1] = test system: carrageenin-induced paw oedema; assay: Carrageenin oedema in mouse paw; details: mice, carrageenin intraplantar; alpha-humulene 50 mg/kg orally 1 h before; dexamethasone 0.5 mg/kg subcutaneously 4 h before; 30 min to 48 h
Procedure: The test used below is described by Cunha et. al. in the publication Life Sci. 70:159-169, 2001. […] The left paw received the same volume of saline and was taken as a negative control. The swelling was measured with a plethysmometer (manufacturer: Ugo Basile, Italy) along various time intervals after the injection of the phlogistic agent. The difference between the volumes of the right and the left paw were quantified (in ml) and taken as an index of oedema. One hour before the test the animals were systemically treated (orally) with 50 mg/kg of alphahumulene or trans-caryophyllene. Graph 2 below compares the inhibition of the volume of the oedema by administration of either alpha-humulene or trans-caryophyllene with inhibition obtained with the administration of dexamethasone (0.5 mg/kg, injected subcutaneously 4 h before test) and used as positive control. Oedema volume measurement time point intervals were 30, 60, 120 and 240 min, 24 h and 48 h. Each point represents the average of 5 animals, and the vertical bars the mean standard error deviation.

histamine-induced oedema = assay: Histamine oedema in mouse paw; details: mice, histamine 100 nmol/paw intraplantar; 50 mg/kg orally 1 h before; 10 min to 48 h
Procedure: The test used below is described by Cunha et. al. in the publication Life Sci. 70:159-169, 2001. Male 25 g-35 g mice were slightly sedated with ether and were injected 50 μl saline containing histamine (100 nmol/paw), intraplantar, in the right paw. The left paw received the same volume of saline and was taken as negative control. The swelling was measured with a plethysmometer (manufacturer: Ugo Basile, Italy) along various time intervals after the injection of the phlogistic agent. The difference between the volumes of the right and the left paw were quantified (in ml) and taken as an index of oedema. One hour before the test the animals were systemically treated (orally) with 50 mg/kg of alpha-humulene. Graph 4 below compares the inhibition of the volume of the oedema by administration of alpha-humulene. Oedema volume measurement time intervals were 10, 20, 30, 60, and 120 min, 24 h and 48 h. Each point represents the average of 5 animals, and the vertical bars the mean standard deviation.

[2] = test system: arachidonic acid ear oedema; assay: Arachidonic acid oedema in mouse ear; details: mice, arachidonic acid 2 mg/ear; topical ointment 0.025 to 0.2% caryophyllene applied 60 minutes before
Procedure: The ear oedema in the test below was measured according to Calixto et. al. in the publication Prostaglandins, 5: 515-526, 1991, with minor modifications. Male 25 g-35 g mice, in a first group, were topically applied, in the inner surface of the ears, an ointment comprising a range from 0.025 to 0.2% alpha-humulene or trans-caryophyllene. In the positive control group, the animals were topically applied 0.05 mg of phenidone per ear. After 60 minutes, the animals received 20 μl of arachidonic acid (2 mg/ear), dissolved in acetone, in the inner surface of the right ear. The oedema was measured using a digital micrometer, and the responses were expressed as μm, the difference between the ear thickness before and after the application of arachidonic acid. The responses of the animals treated with caryophyllenes were compared to those observed in the control group animals, treated with base ointment. Graphs 6A and 6B below compare the inhibition of the volume of the oedema by topic administration of alpha-humulene (6A) and trans-caryophyllene (6B). Oedema volume measurement was performed after application of 0.025%, 0.05%, 0.1, and 0.2% caryophyllene content ointment, compared to the oedema volume caused by the application of phenidone and arachidonic acid (C). Each point represents the average of 5 animals, and the vertical bars the mean standard error deviation.

IL-1β = assay: Levels of pro-inflammatory cytokine IL-1β in carrageenin-injected rat paw (Elisa); details: 50 mg/kg orally 60 minutes before carrageenin 300 μg/paw, tissue after 180 minutes
Procedure: The test used below is described by Campos et. al. in the publication Br. J. Pharmacol. 135: 1107-1114, 2002, with minor modifications. Male 160-180 g rats were orally given 50 mg/kg of alpha-humulene. Animals treated with 0.9% (0.1 ml/10 g) saline were used as control. Another group of animals was treated with 0.5 mg/kg dexamethasone, subcutaneously, 4 hours before the test, and used as positive control. After 60 minutes, the animals received intraplantar injections of 100 μl of carrageenin (300 μg/paw) and were sacrificed after 180 minutes. Control animals received saline. The subcutaneous tissue of the injected paws was removed and put in a phosphate buffer containing 0.5% tween 20, 0.1 mM benzametonium chloride, 10 mM EDTA, 2 μg/m aprotinin, 0.1 mM PMSF (phenyl methyl sulfonyl fluoride) and 0.5% BSA (bovine serum albumin). The tissues were homogenized and centrifuged at 3000 g, for 10 min, at −4° C. The supernatant was used in the test. The levels of IL-1β were measures with an Elisa kit, according to the manufacturer's instructions (R & D Systems®, USA). The tests were performed in duplicate, and repeated three times. The answers are expressed in pg/mg of tissue. […]

iNOS = assay: Expression of enzyme iNOS in carrageenin-injected rat paw (Western blot); details: 50 mg/kg orally 60 minutes before carrageenin 300 μg/paw, subcutaneous paw tissue
Procedure: Animals treated with 0.9% (0.1 ml/10 g) saline were used as control. Another group of animals was treated with 0.5 mg/kg dexamethasone, subcutaneously, 4 hours before the test, and used as positive control. After 60 minutes, the animals received intraplantar injections of 100 μl of carrageenin (300 μg/paw) and were sacrificed after 180 minutes, and subcutaneous paw tissue was removed 240 minutes after the carrageenin injection. The collected tissue was immediately frozen in liquid nitrogen and re-suspended in a buffer of hypotonic lysis (10 mM HEPES N-2-hydroxyethylpiperazine-N'-2-ethanesulfonic acid, 1.5 mM MgCl2, 10 mM KCl, 0.5 mM PMSF phenylmethylsulphonyl fluoride, 1.5 μg/ml trypsin inhibitor, 7 μg/ml pepstatin A, 5 μg/ml leupeptin, 0.1 mM benzamidine 0.1 mM and 0.5 mM dithiothreitol) and homogenized. The homogenate was divided in three 2 ml aliquots, cooled in ice for 15 minutes, vigorously agitated and once again cooled in ice, in the presence of 20 μl 10% non-ionic detergent Nonidet P-40 (Roche Diagnostics, USA). […] The protein concentration was determined by the Bradford method (BioRad Laboratories Inc. kit, Milan, Italy). […] The bands thus obtained were quantified using a chemoluminescence kit and densitometry analysis (relative units) in radiographic films.

C/C1=C\CC/C(C)=C/CC(C)(C)/C=C/C1 [alpha-humulene]
inflammatory volume (paw oedema volume) [1]: reduced the inflammatory volume
histamine-induced oedema formation (histamine-induced oedema): significantly reduced histamine-induced oedema formation
arachidonic acid ear oedema formation [2]: markedly reduced oedema formation, in a dose-dependent manner
production of pro-inflammatory cytokine IL-1β induced by carrageenin in the paws of rats (IL-1β): markedly inhibited the production
expression of enzymes iNOS induced by carrageenin in the paws of rats (iNOS): markedly inhibited the expression

C=C1CC/C=C(\C)CC[C@@H]2[C@@H]1CC2(C)C [trans-caryophyllene]
arachidonic acid ear oedema formation [2]: markedly reduced oedema formation, in a dose-dependent manner
